This is an account of results in patent publication US12161114B2, “Overpowered ABA receptor agonists” (The Regents of the University of California, priority 2018, dated 2024).

For assay [1], the system named is Arabidopsis pMAPKKK18-Luc+ reporter strain seedlings. Nature of the assay: ABA reporter gene luminescence assay. The note with it: 25 μM, 6-hours post-treatment. It is filed as in vivo. The protocol: Liquid grown Arabidopsis […]18-Luc+ reporter strain seedlings were treated with 25 μM test compounds or a mock control and 100 μM luciferin. Luminescence images were captured 6-hours post-treatment.
A general note: Reporter assays use an easily measured gene product as a stand-in for the process of interest.

For assay [2], the system named is pyr1/pyl1, pyl8/pyl9 and abi1C mutants. Nature of the assay: seed germination on receptor mutants and ABA signalling mutant abi1C. Particulars: tested at twice the EC50. It is filed as in vivo, Arabidopsis. The protocol:
(§1) Prior to selecting a scaffold for optimization we conducted Arabidopsis seed germination assays to establish if the hits obtained are activity in vivo. Germination experiments were performed with surface sterilized wild type Columbia Arabidopsis thaliana seeds and abi1C (the abi1-1 allele isolated in the Columbia ecotype) plated onto 0.7% agar medium containing 1/2-x MS salts, 0.5% sucrose and differing concentrations of the test compounds. After 4d of stratification at 4° C., the plates were transferred to a growth chamber under continuous illumination and evaluated after 4 days.
Methods similar to example 3 were followed.

Assay [3] concerns wild type Columbia Arabidopsis thaliana seeds. Put plainly: Arabidopsis seed germination assay. The class given is in vivo. The protocol: as §1
To establish if the in vitro potency of Opa translates into improved activity in vivo, we measured the effects of ABA, QB, AMF4, Opa and 2e on Arabidopsis seed germination at a range of concentrations to infer quantitative measures or potency. Methods similar to that described in Example 3 are followed. The percentage of germinated seeds were recorded for each chemical treatment for each concentration in quadruplicate. EC50 values denote the concentrations at which 50% of seeds have been inhibited.

As to `N#Cc1c(C2CC2)cc(CC(=O)NC2(C(=O)O)CCCCC2)cc1C1CC1` [2f, 1-[2-(4-cyano-3,5-dicyclopropylphenyl)acetamido]cyclohexane-1-carboxylic acid], in assay [1], the “induction of ABA-transcriptional responses (luminescence)” value is on record as “effective inducer of ABA-transcriptional responses”. In assay [2], the “effect on germination in receptor mutant backgrounds” value is on record as “only show diminished activity in the pyr1/pyl1 mutant”. The test concentration (twice the EC50 for germination inhibition) in assay [3] (Arabidopsis thaliana, printed value is twice the EC50, used as test concentration on mutants, read-out: twice the concentrations determined as its EC50 (inhibition of germination) (converted)) was 60 nM. In assay [3] (in vivo), the “fold more active than either QB or AMF4 in seed germination inhibition” value is above 10 x and the “inhibition of Arabidopsis seed germination (in words)” value is given as “potently inhibits seed germination”.
